Reference: US20250332180A1, “CANNABINOIDS AND IL-15 ACTIVATE NK CELLS” (The Regents of the University of California, priority 2022, published 2025)

Key:
MP2 tumor cells [1] = system: MP2 tumor cells
PL-12 tumor cells [2] = test: Microscopy of morphology and viability; type: cell-based, human; settings: different concentrations of WIN 55,212-2, 24 hours
Description: (§1) MP2 and PL-12 tumor cells were treated with CDDP (50 μg/mL) and different concentrations of WIN 55,212-2 for 24 hours before the microscopic images were taken. Scale bar=50 μm.

MP2 tumor cells [3] = test: Microscopy of morphology and viability; type: cell-based, human; settings: different concentrations of WIN 55,212-2, 24 hours
Description: as §1

NK cells = test: NK cell cytotoxicity in humanized BLT mice (4-hr Chromium release assay); type: in vivo; settings: hu-BLT mice, every 2 days for 3 weeks; WIN 55,212-2 2 mg/kg IP; IL-15 5 μg/mice IP; preliminary experiments
Description: Humanized BLT mice (hu-BLT; human-bone marrow/liver/thymus) were fed with, AJ2 (5×10^9 CFU/mice, every 2 days, Oral administration), WIN 55,212-2 (2 mg/kg, every 2 days, IP) and/or IL-15 (5 μg/mice, every 2 days, IP). After 3 weeks of treatment, immune cells were collected from peripheral blood, bone marrow and spleen, and CD3+ T cells were isolated from splenocytes with EasySep™ Human CD3 positive selection kit II (StemCell Tech.). PBMCs (0.5×10^6 cells) obtained from the peripheral blood were treated with IL-2 (1000 U/ml) and/or anti-CD16 antibody (BioLegend) (3 μg/ml) for 3 days, after which the cells were counted and different numbers of E:T ratios were used for the assessment of cytotoxicity using 4-hr Chromium release assay (FIG. 1A and FIG. 1B). The percentage specific cytotoxicity was calculated using the following formula (% cytotoxicity=(Experimental cpm/spontaneous cpm)/(total cpm−spontaneous cpm)) and the lytic unit 30 (Lu30/10^6) was calculated by using the inverse of the number of effector cells needed to lyse 30% of tumor target cells×100. Killing per % NK cells was determined by dividing the total Lytic unit 30 by the percentage of NK cells in each sample (FIG. 1A and FIG. 1B). […]

PL-12 tumor cells [4] = test: Cell count of viable cells (Trypan Blue, light microscope); type: cell-based, human; settings: different concentrations of WIN 55,212-2, 24-48 hours
Excerpt: (§2) The number of viable cells was counted under light microscope using Trypan Blue staining. Compiled data from three experiments performed is shown.
(§3) The number of viable cells was counted under light microscope using Trypan Blue staining (Sigma, MO, USA).

MP2 tumor cells [5] = test: as above; type: cell-based, human; settings: different concentrations of WIN 55,212-2, 24-48 hours
Excerpt: as §2, §3

OSCSCs [6] = settings: 24 hours, up to 50 μM
OSCCs [7] = test: Cell count of viable cells (Trypan Blue, light microscope); type: cell-based, human; settings: WIN 55,212-2 10-100 μM, 24 hours
Excerpt: The number of viable cells was counted under light microscope using Trypan Blue staining. Compiled data from three independent experiments performed as shown.
as §3

OSCCs [8] = test: Microscopy of morphology and viability; type: cell-based, human
Description: (§4) Chemical structure of WIN 55,212-2 (FIG. 7A). […] OSCCs and OSCSCs were treated with CDDP (50 μg/mL) and different concentrations of WIN 55,212-2 for 24 hours before the microscopic images were taken. Scale bar=50 μm (FIG. 7B).

OSCSCs [9] = test: Microscopy of morphology and viability; type: cell-based, human; settings: WIN 55,212-2, even at the lowest concentrations, 24 h
Description: as §4

PL-12 tumor cells [10] = settings: 48 h, 25-100 μM
PL-12 tumor cells [11] = test: Cell death assay (PI staining, flow cytometry); type: cell-based, human; settings: 25-100 μM, 24-48 hours

Structure (SMILES): CS(=O)(=O)O.Cc1c(C(=O)c2cccc3ccccc23)c2cccc3c2n1[C@H](CN1CCOCC1)CO3 [WIN 55,212-2, (R)-(+)-[2,3-Dihydro-5-methyl-3-(4-morpholinylmethyl)pyrrolo[1,2,3-de]-1,4-benzoxazin-6-yl]-1-naphthalenylmethanone mesylate]
- cell surface expression of CD44 (MP2 tumor cells [1]; 48 h, 25-100 μM): Decreased cell surface expression
- cell surface expression of CD54 (MP2 tumor cells [1]; 48 h, 25-100 μM): decreased the expression
- cell surface expression of MHC class I (MP2 tumor cells [1]; 48 h, 25-100 μM): decreased on MP2 tumor cells
- cell surface expression of PD-L1 (MP2 tumor cells [1]; 48 h, 25-100 μM): decreased in MP2 tumor cells
- extent of decrease in all surface receptor expressions, MP2 compared with PL-12 (MP2 tumor cells [1]; after WIN 55,212-2 treatments): significantly greater
- morphology and viability (PL-12 tumor cells [2]): maintained their morphology and remained viable
- morphology and viability (MP2 tumor cells [3]): largely lost their shape and morphology
- cytotoxic function of NK cells in PBMC (NK cells): increased the cytotoxic function of NK cells
- decreased numbers of viable cells (PL-12 tumor cells [4]): 50-70%
- decreased numbers of viable cells (MP2 tumor cells [5]): 60-85%
- cell surface expression of CD44 (OSCSCs [6]): decreased
- cell surface expression of CD54 (OSCSCs [6]): decreased
- cell surface expression of MHC class I (OSCSCs [6]): remained unchanged
- cell surface expression of PD-L1 (OSCSCs [6]): decreased
- decrease in cell numbers (OSCCs [7]): 10-25%
- morphology and viability (OSCCs [8]; 50 μM or higher concentrations of WIN 55,212-2, 24 h): some of the OSCCs still remained viable but others rounded up and detached and were not viable
- morphology and viability (OSCCs [8]; low concentrations of WIN 55,212-2, 24 h): remained viable
- morphology and attachment (OSCSCs [9]): became detached from the culture plates
- cell surface expression of CD44 (PL-12 tumor cells [10]): Decreased cell surface expression
- cell surface expression of CD54 (PL-12 tumor cells [10]): decreased the expression
- cell surface expression of MHC class I (PL-12 tumor cells [10]): increased on PL-12 tumor cells
- cell surface expression of PD-L1 (PL-12 tumor cells [10]): increased in PL-12
- percentages of dead cells (PI staining) (PL-12 tumor cells [11]): up to 20%
